Test [1] deals with PHD1 (EGLN2) (Homo sapiens (Human), UniProt Q96KS0). Nature of the test: HIF-PH assay (14CO2 capture), PHD1 enzyme inhibition. Format: biochemical. The note with it: Table 1; for IC50: individual measurement, read-out: IC50 (μM) PHD1; for PHD2/PHD1: ratio of the IC50 of the compound for each enzyme.
For test [2], the target named is PHD2 (EGLN1) (Homo sapiens (Human), UniProt Q9GZT9). Nature of the test: HIF-PH assay (14CO2 capture), PHD2 enzyme inhibition. Format: biochemical. The note with it: Table 1; individual measurement; read-out: IC50 (μM) PHD2.

Each structure is given as a SMILES string.

Sequence of PHD2 (EGLN1) (Q9GZT9 whole entry): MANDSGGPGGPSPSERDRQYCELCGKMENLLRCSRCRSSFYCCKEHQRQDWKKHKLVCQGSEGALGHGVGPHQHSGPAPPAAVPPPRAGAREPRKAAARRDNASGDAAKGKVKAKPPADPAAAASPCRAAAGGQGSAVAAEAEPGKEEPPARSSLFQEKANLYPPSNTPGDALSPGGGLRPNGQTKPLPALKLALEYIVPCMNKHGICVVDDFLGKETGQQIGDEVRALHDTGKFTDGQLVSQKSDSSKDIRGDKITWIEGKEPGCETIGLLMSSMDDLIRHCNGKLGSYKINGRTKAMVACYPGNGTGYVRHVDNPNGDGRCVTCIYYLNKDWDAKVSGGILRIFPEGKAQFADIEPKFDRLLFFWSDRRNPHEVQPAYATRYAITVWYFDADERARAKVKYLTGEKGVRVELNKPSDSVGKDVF
Sequence of PHD1 (EGLN2) (Q96KS0 whole entry): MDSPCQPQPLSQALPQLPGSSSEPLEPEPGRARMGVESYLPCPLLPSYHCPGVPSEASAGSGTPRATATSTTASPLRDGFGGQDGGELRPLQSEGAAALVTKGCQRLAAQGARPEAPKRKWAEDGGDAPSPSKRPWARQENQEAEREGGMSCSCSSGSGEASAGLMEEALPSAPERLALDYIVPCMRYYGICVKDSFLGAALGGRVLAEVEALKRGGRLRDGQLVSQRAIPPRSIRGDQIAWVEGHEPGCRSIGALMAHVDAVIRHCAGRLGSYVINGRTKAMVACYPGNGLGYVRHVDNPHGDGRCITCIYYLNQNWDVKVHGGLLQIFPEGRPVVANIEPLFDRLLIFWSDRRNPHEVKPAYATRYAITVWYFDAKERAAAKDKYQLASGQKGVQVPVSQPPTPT

What is called IC50 is the midpoint of a concentration-inhibition curve. Take `O=C(O)CCCCNC(=O)c1ncc2cc(Nc3ccccc3)ccc2c1O` [Compound 124, 5-[(4-Hydroxy-7-phenylamino-isoquinoline-3-carbonyl)-amino]-pentanoic acid]: in test [1], the IC50 is 25.4 µM and the PHD2/PHD1 is reported as 8. Besides, in test [2], the half-inhibitory concentration (IC50) worked out at 200 µM.

For `COc1ccc(CNc2ccc3c(O)c(C(=O)NCCCCC(=O)O)ncc3c2)cc1` [Compound 125, 5-{[4-Hydroxy-7-(4-methoxy-benzylamino)-isoquinoline-3-carbonyl]-amino}-pentanoic acid], in test [1], the IC50 was 7.92 µM and the PHD2/PHD1 is given as 20. For the same compound, the IC50 in test [2] came out at 158 µM.

Regarding `COc1ccc(CNc2ccc3c(O)c(C(=O)NCC(C)(C)C(=O)O)ncc3c2)cc1` [Compound 126, 3-{[4-Hydroxy-7-(4-methoxy-benzylamino)-isoquinoline-3-carbonyl]-amino}-2,2-dimethyl-propionic acid], in test [1], the 50% inhibitory concentration (IC50) came to 34 µM and the PHD2/PHD1 was found to be 6. For the same compound, in test [2], the IC50 turned out to be 200 µM.

In the case of `CC(C)(CNC(=O)c1ncc2cc(Sc3ccccc3)ccc2c1O)C(=O)O` [Compound 127, 3-[(4-Hydroxy-7-phenylsulfanyl-isoquinoline-3-carbonyl)-amino]-2,2-dimethyl-propionic acid], the 50% inhibitory concentration (IC50) in test [1] was determined as 7.69 µM; in test [2], 63.1 µM. In addition, the PHD2/PHD1 in test [1] amounted to 8.

Consider `N#Cc1nc(C(=O)NCCCCC(=O)O)c(O)c2cc(Oc3ccccc3)ccc12` [Compound 128, 5-[(1-Cyano-4-hydroxy-6-phenoxy-isoquinoline-3-carbonyl)-amino]-pentanoic acid], for which, in test [1], the half-maximal inhibitory concentration (IC50) stood at 8.99 µM and the PHD2/PHD1 was 7. Besides, in test [2], the IC50 was found to be 65.2 µM.

In the case of `CC(C)(CNC(=O)c1ncc2cc(-c3ccccc3)ccc2c1O)C(=O)O` [Compound 129, 3-[(4-Hydroxy-7-phenyl-isoquinoline-3-carbonyl)-amino]-2,2-dimethyl-propionic acid], the IC50 stood at 25.3 µM in test [1] and 180 µM in test [2]. Also, in test [1], the PHD2/PHD1 is 7.

On to `O=C(O)CCNC(=O)c1ncc2cc(NC(=O)NC3CCCCC3)ccc2c1O` [Compound 130, 3-{[7-(3-Cyclohexyl-ureido)-4-hydroxy-isoquinoline-3-carbonyl]-amino}-propionic acid], for which, in test [1], the IC50 stood at 4.91 µM and the PHD2/PHD1 was determined as 8. The IC50 in test [2] is 39.6 µM.

Consider `O=C(O)CCCNC(=O)c1ncc2cc(NC(=O)NC3CCCCC3)ccc2c1O` [Compound 131, 4-{[7-(3-Cyclohexyl-ureido)-4-hydroxy-isoquinoline-3-carbonyl]-amino}-butyric acid], for which, in test [1], the IC50 was 3.16 µM and the PHD2/PHD1 came out at 25. Also, in test [2], the concentration for half-maximal inhibition (IC50) was 77.6 µM.

With `O=C(O)CCNC(=O)c1ncc2cc(-c3ccc(F)cc3)ccc2c1O` [Compound 132, 3-{[7-(4-Fluoro-phenyl)-4-hydroxy-isoquinoline-3-carbonyl]-amino}-propionic acid], in test [1], the concentration for half-maximal inhibition (IC50) was 2.38 µM and the PHD2/PHD1 is reported as 12. In test [2], the 50% inhibitory concentration (IC50) came to 27.6 µM.

On to `O=C(O)CCNC(=O)c1ncc2cc(NC(=O)NCc3ccccc3)ccc2c1O` [Compound 133, 3-{[7-(3-Benzyl-ureido)-4-hydroxy-isoquinoline-3-carbonyl]-amino}-propionic acid], for which, in test [1], the half-inhibitory concentration (IC50) turned out to be 0.85 µM and the PHD2/PHD1 is reported as 7. In addition, in test [2], the IC50 turned out to be 6.06 µM.

Regarding `O=C(O)CCCNC(=O)c1ncc2cc(NC(=O)NCc3ccccc3)ccc2c1O` [Compound 134, 4-{[7-(3-Benzyl-ureido)-4-hydroxy-isoquinoline-3-carbonyl]-amino}-butyric acid], in test [1], the IC50 stood at 2.15 µM and the PHD2/PHD1 is 6. The IC50 in test [2] turned out to be 13.4 µM.

As for `O=C(O)CCNC(=O)c1ncc2cc(S(=O)(=O)C3CCCCC3)ccc2c1O` [Compound 135, 3-[(7-Cyclohexanesulfonyl-4-hydroxy-isoquinoline-3-carbonyl)-amino]-propionic acid], the IC50 is 0.35 µM in test [1] and 2.88 µM in test [2]. Besides, the PHD2/PHD1 in test [1] is listed as 8.

On to `CC(C)(CNC(=O)c1nc(-c2cncc(F)c2)c2cc(Oc3ccccc3)ccc2c1O)C(=O)O` [Compound 136, 3-{[1-(5-Fluoro-pyridin-3-yl)-4-hydroxy-7-phenoxy-isoquinoline-3-carbonyl]-amino}-2,2-dimethyl-propionic acid], for which, in test [1], the IC50 is 7.21 µM and the PHD2/PHD1 is 28. The IC50 in test [2] was determined as 200 µM.

Take `N#Cc1nc(C(=O)NCCC(=O)O)c(O)c2ccc(-c3ccccc3)cc12` [Compound 137, 3-[(1-Cyano-4-hydroxy-7-phenyl-isoquinoline-3-carbonyl)-amino]-propionic acid]: the 50% inhibitory concentration (IC50) turned out to be 0.61 µM in test [1] and 3.67 µM in test [2]. Further, the PHD2/PHD1 in test [1] came to 6.

Take `CC(C)(CNC(=O)c1nc(C#N)c2cc(-c3ccccc3)ccc2c1O)C(=O)O` [Compound 138, 3-[(1-Cyano-4-hydroxy-7-phenyl-isoquinoline-3-carbonyl)-amino]-2,2-dimethyl-propionic acid]: the values for the IC50 in test [1] and in test [2] were 1.13 µM and 24.1 µM, respectively. Besides, in test [1], the PHD2/PHD1 is recorded as 21.

Regarding `CC(C)(CNC(=O)c1nc(C#N)c2cc(NC(=O)c3ccc(F)cc3)ccc2c1O)C(=O)O` [Compound 139, 3-{[1-cyano-7-(4-Fluoro-benzoylamino)-4-hydroxy-isoquinoline-3-carbonyl]-amino}-2,2-dimethyl-propionic acid], in test [1], the IC50 was found to be 5.65 µM and the PHD2/PHD1 is 35. In addition, the IC50 in test [2] is 200 µM.

With `CC(C)(CNC(=O)c1nc(C#N)c2cc(NC(=O)Nc3ccccc3)ccc2c1O)C(=O)O` [Compound 140, 3{-[1-Cyano-4-hydroxy-7-(3-phenyl-ureido)-isoquinoline-3-carbonyl]-amino}-2,2-dimethyl-propionic acid], in test [1], the concentration for half-maximal inhibition (IC50) is 2.81 µM and the PHD2/PHD1 stood at 12. Besides, the 50% inhibitory concentration (IC50) in test [2] was found to be 33.5 µM.

For `O=C(O)CCNC(=O)c1ncc2cc(NC(=O)Nc3ccc(F)cc3)ccc2c1O` [Compound 141, 3-({7-[3-(4-Fluoro-phenyl)-ureido]-4-hydroxy-isoquinoline-3-carbonyl}-amino)-propionic acid], in test [1], the 50% inhibitory concentration (IC50) turned out to be 3 µM and the PHD2/PHD1 is listed as 13. Moreover, the IC50 in test [2] stood at 37.8 µM.

In the case of `O=C(O)CCCNC(=O)c1ncc2cc(NC(=O)Nc3ccc(F)cc3)ccc2c1O` [Compound 142, 4-([7-[3-(4-Fluoro-phenyl)-ureido]-4-hydroxy-isoquinoline-3-carbonyl]-amino)-butyric acid], the half-inhibitory concentration (IC50) in test [1] is 4.12 µM; in test [2], 56.4 µM. Further, the PHD2/PHD1 in test [1] is given as 14.

Turning to `CC(C)(CNC(=O)c1nc(-c2ccccc2)c2cc(Oc3ccccc3)ccc2c1O)C(=O)O` [Compound 143, 3-[(4-Hydroxy-7-phenoxy-1-phenyl-isoquinoline-3-carbonyl)-amino]-2,2-dimethyl-propionic acid], in test [1], the concentration for half-maximal inhibition (IC50) stood at 11.1 µM and the PHD2/PHD1 came to 8. In addition, the 50% inhibitory concentration (IC50) in test [2] amounted to 88.4 µM.

For the compound `O=C(O)CCNC(=O)c1nc(-c2ccccc2)c2cc(Oc3ccccc3)ccc2c1O` [Compound 144, 3-[(4-Hydroxy-7-phenoxy-1-phenyl-isoquinoline-3-carbonyl)-amino]-propionic acid], in test [1], the 50% inhibitory concentration (IC50) worked out at 6.4 µM and the PHD2/PHD1 was determined as 5. Further, the IC50 in test [2] turned out to be 31.7 µM.

As for `O=C(O)CCNC(=O)c1nc(C(F)(F)F)c2cc(Oc3ccccc3)ccc2c1O` [Compound 145, 3-[(4-Hydroxy-7-phenoxy-1-trifluoromethyl-isoquinoline-3-carbonyl)-amino]-propionic acid], the IC50 in test [1] was determined as 18.6 µM; in test [2], 101 µM. The PHD2/PHD1 in test [1] worked out at 5.

With `CC(C)(CNC(=O)c1ncc2cc(Cc3ccccc3)ccc2c1O)C(=O)O` [Compound 146, 3-[(7-Benzyl-4-hydroxy-isoquinoline-3-carbonyl)-amino]-2,2-dimethyl-propionic acid], in test [1], the IC50 was 23.7 µM and the PHD2/PHD1 stood at 8. Further, the IC50 in test [2] came to 181 µM.

As to `O=C(O)CCCCNC(=O)c1nc(-c2cncc(F)c2)c2cc(Oc3ccccc3)ccc2c1O` [Compound 147, 5-{[1-(5-Fluoro-pyridin-3-yl)-4-hydroxy-7-phenoxy-isoquinoline-3-carbonyl]-amino}-pentanoic acid], in test [1], the half-maximal inhibitory concentration (IC50) amounted to 5.09 µM and the PHD2/PHD1 is listed as 15. Further, in test [2], the IC50 amounted to 77 µM.

Take `O=C(O)CCCNC(=O)c1ncc2cc(-c3ccc(F)cc3)ccc2c1O` [Compound 148, 4-{[7-(4-Fluoro-phenyl)-4-hydroxy-isoquinoline-3-carbonyl]-amino}-butyric acid]: the half-inhibitory concentration (IC50) in test [1] was 2.88 µM; in test [2], 24.5 µM. Moreover, the PHD2/PHD1 in test [1] turned out to be 9.

`O=C(O)CCCCNC(=O)c1ncc2cc(-c3ccc(F)cc3)ccc2c1O` [Compound 149, 5-{[7-(4-Fluoro-phenyl)-4-hydroxy-isoquinoline-3-carbonyl]-amino}-pentanoic acid]: the IC50 in test [1] was found to be 18.5 µM; in test [2], 87 µM. In test [1], the PHD2/PHD1 was determined as 5.

With `CC(C)(CNC(=O)c1ncc2cc(-c3ccc(F)cc3)ccc2c1O)C(=O)O` [Compound 150, 3-{[7-(4-Fluoro-phenyl)-4-hydroxy-isoquinoline-3-carbonyl]-amino}-2,2-dimethyl-propionic acid], in test [1], the IC50 came to 22.9 µM and the PHD2/PHD1 amounted to 5. Moreover, the IC50 in test [2] was 114 µM.

Regarding `Cn1nc(C(F)(F)F)cc1-c1nc(C(=O)NCC(C)(C)C(=O)O)c(O)c2ccc(Oc3ccccc3)cc12` [Compound 151, 3-{[4-Hydroxy-1-(2-methyl-5-trilluoromethyl-2H-pyrazol-3-yl)-7-phenoxy-isoquinoline-3-carbonyl]-amino}-2,2-dimethyl-propionic acid], in test [1], the IC50 stood at 12.8 µM and the PHD2/PHD1 worked out at 9. Also, the IC50 in test [2] amounted to 111 µM.

For the origin of these results see patent US9409892B2, “4-hydroxy-isoquinoline compounds as HIF hydroxylase inhibitors” (FIBROGEN, INC., priority 2012, dated 2016).
